Data: PubChem BioAssay AID328 (DTP/NCI, 2004)
“And” between values parts separate entries of the source, which are not always exact repeats. Identical values can stand only once. Inconclusive results and toxic doses are left out. Rule for the calls: active = survival T/C of 150% or more; inactive = T/C below 125% in these data.

System: BDF1 mice, P388 leukemia ip, median survival T/C
Test: NCI In Vivo Anticancer Drug Screen. Data for tumor model P388 Leukemia (intraperitoneal) in B6D2F1 (BDF1) mice
Conditions: endpoint: median survival time, higher = longer survival
Summary of the method: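 Read-out is survival of treated animals expressed relative to the vehicle group, as a T/C ratio.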

[1] = dose: 100.0 mg/kg/injection, schedule: Q04DX003 (ip), vehicle: Klucel (hydroxypropylcellulose) (HPC)
[2] = dose: 50.0 mg/kg/injection, schedule: Q01DX009 (ip), vehicle: saline with Tween-80
[3] = dose: 100.0 mg/kg/injection, schedule: Q01DX009 (ip), vehicle: saline with Tween-80
[4] = dose: 200.0 mg/kg/injection, schedule: Q01DX009 (ip), vehicle: saline with Tween-80
[5] = dose: 100.0 mg/kg/injection, schedule: Q04DX003 (ip), vehicle: saline with Tween-80
[6] = dose: 200.0 mg/kg/injection, schedule: Q04DX003 (ip), vehicle: saline with Tween-80
[7] = dose: 400.0 mg/kg/injection, schedule: Q04DX003 (ip), vehicle: saline with Tween-80

Measured: T/C

c1cc(NC2CCCCC2)ccc1CN1CCOCC1
inactive: dose: 50.0 mg/kg/injection, schedule: Q01DX009 (ip), vehicle: other 102 % of control and 109 % of control | dose: 100.0 mg/kg/injection, schedule: Q01DX009 (ip), vehicle: other 116 % of control

O=[N+]([O-])c1ccc(/C=C\S(=O)(=O)OCCCl)cc1
inactive: dose: 3.12 mg/kg/injection, schedule: Q01DX005 (ip), vehicle: Klucel (hydroxypropylcellulose) (HPC) 115 % of control | dose: 6.25 mg/kg/injection, schedule: Q01DX005 (ip), vehicle: Klucel (hydroxypropylcellulose) (HPC) 99 % of control | dose: 12.5 mg/kg/injection, schedule: Q01DX005 (ip), vehicle: Klucel (hydroxypropylcellulose) (HPC) 114 % of control

NC(=O)c1ccc(C(F)(F)F)cc1O
inactive: [1] 90 % of control | dose: 200.0 mg/kg/injection, schedule: Q04DX003 (ip), vehicle: Klucel (hydroxypropylcellulose) (HPC) 90 % of control

COc1ccc(/C=C2\CCC3C(CCCC34OCCO4)C2=O)cc1 (centres undefined)
inactive: dose: 45.0 mg/kg/injection, schedule: Q01DX009 (ip), vehicle: Klucel (hydroxypropylcellulose) (HPC) 104 % of control | [2] 100 % of control | dose: 65.0 mg/kg/injection, schedule: Q01DX009 (ip), vehicle: Klucel (hydroxypropylcellulose) (HPC) 95 % of control | dose: 100.0 mg/kg/injection, schedule: Q01DX009 (ip), vehicle: Klucel (hydroxypropylcellulose) (HPC) 118 % of control | [3] 104 % of control | dose: 100.0 mg/kg/injection, schedule: Q04DX003 (ip), vehicle: other 91 % of control | dose: 150.0 mg/kg/injection, schedule: Q01DX009 (ip), vehicle: Klucel (hydroxypropylcellulose) (HPC) 90 % of control | dose: 200.0 mg/kg/injection, schedule: Q01DX009 (ip), vehicle: Klucel (hydroxypropylcellulose) (HPC) 100 % of control | [4] 96 % of control | dose: 200.0 mg/kg/injection, schedule: Q04DX003 (ip), vehicle: other 108 % of control | dose: 400.0 mg/kg/injection, schedule: Q01DX009 (ip), vehicle: Klucel (hydroxypropylcellulose) (HPC) 95 % of control | dose: 400.0 mg/kg/injection, schedule: Q04DX003 (ip), vehicle: other 95 % of control

NC(Cc1ccc(O)cc1)C(=O)OCc1ccccc1 (centres undefined)
inactive: [5] 104 % of control | [6] 104 % of control | [7] 100 % of control

CCOC(=O)/C=C/C(C(=O)OCC)C(=O)OCC
inactive: dose: 75.0 mg/kg/injection, schedule: Q04DX003 (ip), vehicle: saline with Tween-80 95 % of control | dose: 150.0 mg/kg/injection, schedule: Q04DX003 (ip), vehicle: saline with Tween-80 120 % of control

COc1cc(/C=N/N=C(\N)N[N+](=O)[O-])cc(OC)c1OC
inactive: dose: 100.0 mg/kg/injection, schedule: Q01DX001 (ip), vehicle: saline with Tween-80 90 % of control | dose: 200.0 mg/kg/injection, schedule: Q01DX001 (ip), vehicle: saline with Tween-80 90 % of control | dose: 400.0 mg/kg/injection, schedule: Q01DX001 (ip), vehicle: saline with Tween-80 90 % of control

O=C(c1ccccc1Cl)n1c2c(c3ccccc31)CCCC2
inactive: [5] 100 % of control | [6] 104 % of control | [7] 100 % of control

Cc1ccc([N+](=O)[O-])cc1N=C=O
inactive: dose: 12.5 mg/kg/injection, schedule: Q01DX009 (ip), vehicle: Klucel (hydroxypropylcellulose) (HPC) 96 % of control | dose: 25.0 mg/kg/injection, schedule: Q01DX009 (ip), vehicle: Klucel (hydroxypropylcellulose) (HPC) 100 % of control | dose: 50.0 mg/kg/injection, schedule: Q01DX009 (ip), vehicle: Klucel (hydroxypropylcellulose) (HPC) 96 % of control | [1] 91 % of control | dose: 400.0 mg/kg/injection, schedule: Q04DX003 (ip), vehicle: Klucel (hydroxypropylcellulose) (HPC) 91 % of control

Nc1cc[c]([Hg][Cl])cc1
inactive: dose: 1.5 mg/kg/injection, schedule: Q01DX001 (ip), vehicle: Klucel (hydroxypropylcellulose) (HPC) 110 % of control | dose: 3.0 mg/kg/injection, schedule: Q01DX001 (ip), vehicle: Klucel (hydroxypropylcellulose) (HPC) 115 % of control | dose: 6.0 mg/kg/injection, schedule: Q01DX001 (ip), vehicle: Klucel (hydroxypropylcellulose) (HPC) 100 % of control and 104 % of control

Cc1cccc2nc(Oc3ccccc3)nc(=O)n12
inactive: [2] 96 % of control | [3] 99 % of control

O=[N+]([O-])c1ccc(/C=N/c2nccs2)o1
inactive: dose: 3.12 mg/kg/injection, schedule: Q04DX003 (ip), vehicle: saline 107 % of control | dose: 6.25 mg/kg/injection, schedule: Q04DX003 (ip), vehicle: saline 106 % of control and 107 % of control | dose: 12.5 mg/kg/injection, schedule: Q01DX009 (ip), vehicle: saline 92 % of control | dose: 12.5 mg/kg/injection, schedule: Q04DX003 (ip), vehicle: saline 92 % of control and 107 % of control and 115 % of control | dose: 25.0 mg/kg/injection, schedule: Q01DX009 (ip), vehicle: saline 90 % of control | dose: 25.0 mg/kg/injection, schedule: Q04DX003 (ip), vehicle: saline 107 % of control and 111 % of control and 115 % of control | dose: 50.0 mg/kg/injection, schedule: Q01DX009 (ip), vehicle: saline 94 % of control | dose: 50.0 mg/kg/injection, schedule: Q04DX003 (ip), vehicle: saline 101 % of control and 107 % of control | dose: 100.0 mg/kg/injection, schedule: Q01DX009 (ip), vehicle: saline 86 % of control | dose: 100.0 mg/kg/injection, schedule: Q04DX003 (ip), vehicle: saline 109 % of control and 110 % of control | dose: 200.0 mg/kg/injection, schedule: Q01DX009 (ip), vehicle: saline 98 % of control

CCCCC(=O)/C=C/c1ccccc1
inactive: [2] 102 % of control | [3] 109 % of control | [4] 120 % of control

NOCc1csc(N)n1
inactive: dose: 75.0 mg/kg/injection, schedule: Q04DX003 (ip), vehicle: saline 91 % of control | dose: 300.0 mg/kg/injection, schedule: Q04DX003 (ip), vehicle: saline 87 % of control

Clc1nnc(Cl)c(Cl)c1Cl
inactive: dose: 0.22 mg/kg/injection, schedule: Q01DX009 (ip), vehicle: Klucel (hydroxypropylcellulose) (HPC) 100 % of control | dose: 0.22 mg/kg/injection, schedule: Q04DX003 (ip), vehicle: Klucel (hydroxypropylcellulose) (HPC) 100 % of control | dose: 0.45 mg/kg/injection, schedule: Q01DX009 (ip), vehicle: Klucel (hydroxypropylcellulose) (HPC) 91 % of control | dose: 0.45 mg/kg/injection, schedule: Q04DX003 (ip), vehicle: Klucel (hydroxypropylcellulose) (HPC) 118 % of control | dose: 0.9 mg/kg/injection, schedule: Q01DX009 (ip), vehicle: Klucel (hydroxypropylcellulose) (HPC) 91 % of control | dose: 0.9 mg/kg/injection, schedule: Q04DX003 (ip), vehicle: Klucel (hydroxypropylcellulose) (HPC) 104 % of control | dose: 1.3 mg/kg/injection, schedule: Q04DX003 (ip), vehicle: Klucel (hydroxypropylcellulose) (HPC) 104 % of control | dose: 2.0 mg/kg/injection, schedule: Q04DX003 (ip), vehicle: Klucel (hydroxypropylcellulose) (HPC) 113 % of control | dose: 2.8 mg/kg/injection, schedule: Q01DX009 (ip), vehicle: saline 87 % of control | dose: 3.0 mg/kg/injection, schedule: Q04DX003 (ip), vehicle: Klucel (hydroxypropylcellulose) (HPC) 104 % of control

CCOC(=O)Cc1csc(NNC(=O)c2ccccc2)n1
inactive: [2] 108 % of control | [3] 99 % of control | [4] 101 % of control

CN(c1ccccc1)c1cc2c(cc1[N+](=O)[O-])no[n+]2[O-]
inactive: dose: 15.0 mg/kg/injection, schedule: Q01DX009 (ip), vehicle: saline with Tween-80 118 % of control | dose: 60.0 mg/kg/injection, schedule: Q01DX009 (ip), vehicle: saline with Tween-80 113 % of control

Cc1cc2ccccc2oc1=O
inactive: dose: 25.0 mg/kg/injection, schedule: Q04DX003 (ip), vehicle: saline with Tween-80 100 % of control | dose: 50.0 mg/kg/injection, schedule: Q04DX003 (ip), vehicle: saline with Tween-80 100 % of control | [5] 100 % of control
